Source: PMC8315004, “Discovery of Small-Molecule Inhibitors of SARS-CoV-2 Proteins Using a Computational and Experimental Pipeline” (Frontiers in Molecular Biosciences, 2021)
Several values for one entry are separate records, joined by “and”; a condition that tells them apart may be missing. Equal entries are not always repeated.

Experiments:
[1] = target: T1, SARS-CoV-2 M^pro (Severe acute respiratory syndrome coronavirus 2, UniProt P0DTD1); test: biochemical; set-up: inhibition: dose or concentration left out as unconfirmed; details: for inhibition: read-out: Normalized Percent FRET inhibition; for IC50: normalized FRET data, technical duplicates, end-point about 4 h, read-out: IC50 against Mpro, FRET values; for inhibition of the activity of Mpro in secondary screen: re-screen at 100 μM
[2] = target: T1, SARS-CoV-2 M^pro; test: Mpro substrate cleavage by gel electrophoresis (SDS-PAGE) and densitometry; assay type: biochemical; details: normalized gel densitometry data (red values of Figure 2D); read-out: IC50 against Mpro, gel electrophoresis and densitometry
[3] = initial screen, 100 μM of drug, Table S4

COc1ccc2nc3cc(Cl)ccc3c(Nc3cc(CN4CCCC4)c(O)c(CN4CCCC4)c3)c2n1 [Pyronaridine]
inhibition ([1]; initial screen, Table S4): -8.33%

CNC(=O)c1cnn(-c2nc(N)c3ncn([C@@H]4O[C@H](CO)[C@@H](O)[C@H]4O)c3n2)c1 [Regadenoson]
Normalized Percent FRET inhibition [1, 3]: -0.1877%

Cc1cc(/C=C/C#N)cc(C)c1Nc1ccnc(Nc2ccc(C#N)cc2)n1 [Rilpivirine]
inhibition ([1]; initial screen, Table S4): 5.87%

Cc1nc2n(c(=O)c1CCN1CCC(c3noc4cc(F)ccc34)CC1)CCCC2 [Risperidal]
Normalized Percent FRET inhibition ([1]; 100 µM): -1.672

C=CC[N+]1([C@H]2C[C@H]3[C@@H]4CC[C@H]5C[C@H](O)[C@@H](N6CCOCC6)C[C@]5(C)[C@H]4CC[C@]3(C)[C@H]2OC(C)=O)CCCC1 [Rocuronium bromide]
inhibition ([1]; initial screen, Table S4): 11.3%

Cc1cncc(CN2CCC(=C3c4ccc(Cl)cc4CCc4cccnc43)CC2)c1.O=C(O)/C=C/C(=O)O [Rupatadine Fumarate]
Normalized Percent FRET inhibition [1, 3]: -2.415%

C[C@@H]1O[C@@H](OC[C@H]2O[C@@H](Oc3c(-c4ccc(O)c(O)c4)oc4cc(O)cc(O)c4c3=O)[C@H](O)[C@@H](O)[C@@H]2O)[C@H](O)[C@H](O)[C@H]1O [Rutin]
inhibition ([1]; initial screen, Table S4): -0.554%

CC(C)(C)NC(=O)[C@@H]1C[C@@H]2CCCC[C@@H]2CN1C[C@@H](O)[C@H](Cc1ccccc1)NC(=O)[C@H](CC(N)=O)NC(=O)c1ccc2ccccc2n1 [Saquinavir]
inhibition ([1]; initial screen, Table S4): -1.34%

COc1ccc2c(O[C@@H]3C[C@H]4C(=O)N[C@]5(C(=O)NS(=O)(=O)C6CC6)C[C@H]5/C=C\CCCCN(C)C(=O)[C@@H]4C3)cc(-c3nc(C(C)C)cs3)nc2c1C [Simeprevir]
inhibition ([1]; initial screen, Table S4): 72.9%

CC(C)OC(=O)[C@H](C)N[P@](=O)(OC[C@H]1O[C@@H](n2ccc(=O)[nH]c2=O)[C@](C)(F)[C@@H]1O)Oc1ccccc1 [Sofosbuvir]
inhibition ([1]; initial screen, Table S4): -0.4%

C=CC[C@@H]1/C=C(\C)C[C@H](C)C[C@H](OC)[C@H]2O[C@@](O)(C(=O)C(=O)N3CCCC[C@H]3C(=O)O[C@H](/C(C)=C/[C@@H]3CC[C@@H](O)[C@H](OC)C3)[C@H](C)[C@@H](O)CC1=O)[C@H](C)C[C@@H]2OC [Tacrolimus]
inhibition ([1]; initial screen, Table S4): -0.417%

Cc1nc(C)c2c(n1)N(Cc1ccc(-c3ccccc3-c3nnn[nH]3)cc1)C(=O)CC2 [Tasosartan]
inhibition ([1]; initial screen, Table S4): -1.96%

CN(C)[C@@H]1C(O)=C(C(N)=O)C(=O)[C@@]2(O)C(O)=C3C(=O)c4c(O)cccc4[C@@](C)(O)[C@H]3C[C@@H]12 [Tetracycline]
inhibition ([1]; initial screen, Table S4): 40.3% | IC50 [1]: 20.8 µM | inhibition of the activity of Mpro in secondary screen [1]: completely inhibit | IC50 [2]: 38.2 µM

CN(C)c1cc(NC(=O)CNC(C)(C)C)c(O)c2c1C[C@H]1C[C@H]3[C@H](N(C)C)C(O)=C(C(N)=O)C(=O)[C@@]3(O)C(O)=C1C2=O [Tigecycline]
inhibition ([1]; initial screen, Table S4): 56.5% | IC50 [1]: 21.5 µM and 20.5 µM | inhibition of the activity of Mpro in secondary screen [1]: completely inhibit | IC50 [2]: 29 µM

CC(=O)Nc1cccc(-n2c(=O)n(C3CC3)c(=O)c3c(Nc4ccc(I)cc4F)n(C)c(=O)c(C)c32)c1.C[S+](C)[O-] [Trametinib DMSO solvate]
Normalized Percent FRET inhibition [1, 3]: 1.516%

CC(=O)O[C@H]1C[C@@H]2CC[C@@H]3[C@H](CC[C@@]4(C)[C@H]3C[C@H]([N+]3(C)CCCCC3)[C@@H]4OC(C)=O)[C@@]2(C)C[C@@H]1N1CCCCC1 [Vecuronium bromide]
inhibition ([1]; initial screen, Table S4): 4.13%

CCOC(=O)N[C@@H]1CC[C@@H]2[C@@H](C1)C[C@H]1C(=O)O[C@H](C)[C@H]1[C@H]2/C=C/c1ccc(-c2cccc(F)c2)cn1 [Vorapaxar]
inhibition ([1]; initial screen, Table S4): -0.416%

COc1cc(C(=O)NS(=O)(=O)c2ccccc2C)ccc1Cc1cn(C)c2ccc(NC(=O)OC3CCCC3)cc12 [Zafirlukast]
inhibition ([1]; initial screen, Table S4): 3.83%

Eptifibatide acetate
Normalized Percent FRET inhibition [1, 3]: 2.056%

Ginkgolide C
Normalized Percent FRET inhibition [1, 3]: -0.7419%

Hyaluronic acid
Normalized Percent FRET inhibition [1, 3]: -2.844%

Ivermectin
Normalized Percent FRET inhibition [1, 3]: -0.9158%

Maraviroc
Normalized Percent FRET inhibition [1, 3]: -2.69%
